Source: patent publication US7476670B2, “Purine derivatives, method for preparing, pharmaceutical compositions and novel use” (Aventis Pharma S.A., priority 2003, dated 2009)

Assays:
[1] = biological target: CaCiv1 (Candida albicans, UniProt A0A1D8PH53); test: Assay for inhibition of CIV-CDK (CIV1) activity; assay type: biochemical
Description: 1) Assay for Inhibition of CIV-CDK (CIV1) Activity
a) Preparation of the Reagents

[2] = biological target: Cyclin Dependent kinase 2 (CDK2) (Homo sapiens, UniProt P24941); test: Assay for inhibition of CDK2 activity; assay type: biochemical; conditions: [33P]ATP, read-out: percentage inhibition at 20 μM
Protocol: The inhibition of the kinase activity of Cyclin Dependent kinase 2 (CDK2) is determined by measuring the phosphorylation of its substrate peptide.
The assay is carried out in a final volume of 50 μl.
The incubation buffer as follows:
• 50 mM Hepes/NaOH pH 7.5 • 10 mM MgCl2 • 1 mM DTT 5 μl of the 10-times concentrated inhibitor are added to 25 μl of incubation buffer containing 0.8 U/μL final concentration of the enzyme; 10 μL of incubation buffer containing 0.0025 mg/ml of peptide substrate are then added and, finally, 10 μL of incubation buffer containing 2 mM ATP and radiolabeled ATP, [^33P]ATP (0.25 μCi), are added. The reaction is stopped after incubation for 10 minutes at 37° C. • Results obtained expressed as percentage inhibition at 20 μM • Example 2 97% • Example 27 97% • Example 30 99% 4) Assay for Inhibition of CDK1 Activity

[3] = biological target: T1, ZAP kinase (Homo sapiens, UniProt P43403); test: Assay for inhibition of ZAP kinase activity; assay type: biochemical; conditions: fluorescence polarization, read-out: percentage inhibition at 20 μM
T1 construct: purchased Panvera P2782
T1 sequence (P43403 1-619): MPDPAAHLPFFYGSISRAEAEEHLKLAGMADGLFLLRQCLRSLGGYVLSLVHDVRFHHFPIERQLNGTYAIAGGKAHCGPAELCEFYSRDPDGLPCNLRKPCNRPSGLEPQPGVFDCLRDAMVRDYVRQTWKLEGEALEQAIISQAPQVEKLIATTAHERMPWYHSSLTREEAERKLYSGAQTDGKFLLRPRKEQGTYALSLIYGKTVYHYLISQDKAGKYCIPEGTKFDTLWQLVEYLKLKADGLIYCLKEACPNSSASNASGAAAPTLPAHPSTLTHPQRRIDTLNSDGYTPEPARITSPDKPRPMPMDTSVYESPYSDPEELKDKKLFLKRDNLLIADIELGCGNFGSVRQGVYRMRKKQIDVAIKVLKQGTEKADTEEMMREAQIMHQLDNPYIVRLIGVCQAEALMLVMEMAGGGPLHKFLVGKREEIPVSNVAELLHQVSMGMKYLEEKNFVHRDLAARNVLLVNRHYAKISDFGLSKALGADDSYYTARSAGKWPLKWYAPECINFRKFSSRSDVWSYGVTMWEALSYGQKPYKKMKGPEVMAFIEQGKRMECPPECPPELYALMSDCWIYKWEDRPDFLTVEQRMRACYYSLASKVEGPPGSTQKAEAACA
Protocol: The inhibition of the kinase activity is determined by fluorescence polarization, the ZAP kinase phosphorylates a peptide detected by adding an anti-phosphopeptide antibody coupled to a fluorescent label.
The assay is carried out in a final volume of 50 μl; all the reagents are prepared in a buffer: • 20 mM Tris/HCl pH 7.7 • 7 mM MnCl2 • 50 μM Na2VO4 5 μl of the 10-times concentrated inhibitor are added to 25 μl of enzyme (0.7 μg/ml final concentration) (Panvera ref P2782). After incubation for 5 minutes at ambient temperature, 10 μl of PolyGT (300 ng/ml final concentration) and 10 μl of ATP (0.25 μM final concentration) are added. The detection is carried out after incubation for 15 minutes at ambient temperature. • Results obtained expressed as percentage inhibition at 20 μM • Example 8 98% • Example 20 95% • Example 24 96% 7) Assay for Inhibition of Casein Kinase II Activity

[4] = tested on: Aspergillus fumigatus; test: Minimum inhibitory concentration in liquid medium, micro method (NCCLS M27-A); assay type: cell-based; conditions: Aspergillus fumigatus; at least 80% inhibition of growth, read after 48-72 h at 37° C., RPMI 1640

Sequence of CaCiv1 (A0A1D8PH53 entry or part of it): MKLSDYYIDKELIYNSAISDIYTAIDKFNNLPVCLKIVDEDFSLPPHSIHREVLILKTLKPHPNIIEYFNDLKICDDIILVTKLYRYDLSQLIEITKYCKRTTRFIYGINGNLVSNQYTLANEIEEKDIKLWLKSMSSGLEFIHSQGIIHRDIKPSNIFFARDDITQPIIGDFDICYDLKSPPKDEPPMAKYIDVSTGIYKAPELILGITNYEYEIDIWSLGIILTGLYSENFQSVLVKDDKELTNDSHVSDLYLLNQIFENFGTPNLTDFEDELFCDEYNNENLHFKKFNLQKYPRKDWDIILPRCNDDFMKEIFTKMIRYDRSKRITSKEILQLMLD

Compound	IC50 [1]	inhibition at 20 µM [2]	inhibition at 20 µM [3]	MIC [4]
Cl.Cl.N[C@H]1CC[C@H](Nc2nc(N3CCc4cc([N+](=O)[O-])ccc43)c3nc[nH]c3n2)CC1 [Example 30, Trans-N-[6-(2,3-dihydro-5-nitro-1H-indol-1-yl)-9H-purin-2-yl]-1,4-cyclohexanediamine dihydrochloride]	100 nM	99%	–	–
Cl.N[C@H]1CC[C@H](Nc2nc(-n3cnc4cc(Cl)c(Cl)cc43)c3nc[nH]c3n2)CC1 [Example 8, Trans-N-[6-(5,6-dichloro-1H-benzimidazol-1-yl)-9H-purin-2-yl]-1,4-cyclohexanediamine hydrochloride]	1300 nM	–	98%	32 µg/mL
